The subject of experiment [1] is STAT3. Description: Immunoblotting of STAT3 phosphorylation in OPM2 and JJN3 cells. Type of experiment: cell-based, human. To be noted: OPM2 and JJN3, 24 hr. On the procedure:
(§1) (B) LP1 and JJN3 cells were starved overnight, then treated with C98 or S14161 for 2 hr, followed by IGF-1 (100 ng/mL) for 15 min. Cells were then prepared for the analysis of the expression of p-AKT, t-AKT, p-IGF-1R, and IGF-1R by immunoblotting. (C) OPM2 and JJN3 cells were treated with increasing concentrations of C98 for 24 hr before being applied to immunoblotting against p-ERK, t-ERK, p-P38, t-P38, p-Src, t-Src, p-STAT3, or t-STAT3. GAPDH and β-actin were used as loading controls.
(§2) To further clarify the effects of C98 on other signaling pathways associated with PI3K signaling, we evaluated ERK and p38, both of which mediate extracellular signaling similar to PI3K. […] We also checked the phosphorylation status of STAT3, a signal transducer and activator of transcription. […] Therefore, C98 had no effects on these kinases/proteins associated with PI3K signaling.
(§3) The immunoblotting assays were performed as described previously. IRDye 680 goat anti-mouse and IRDye 800CW goat anti-rabbit antibodies were from Odyssey (San Ramon, CA, USA).

Experiment [2] deals with JJN3 xenograft. Description: JJN3 myeloma xenograft in nude mice. Type of experiment: in vivo.
The test system of experiment [3] is KMS11, LP1, OCI-My5, OPM2, JJN3, and RPMI-8226. Description: Immunoblotting of PARP and caspase-3 cleavage in MM cell lines. It is filed as cell-based. Conditions: all cell lines examined, 20 μM, 24 hr. On the procedure: To answer whether C98 could induce apoptosis in other MM cells, 5 more MM cells were subject to the study. […] Cell apoptosis induced by C98 was further confirmed by the increased fraction of positive cells stained with Annexin V (Figure 5). To show whether activated PI3K signals can rescue C98 effects on MM cells, both OPM2 and RPMI-8226 cells were treated with IGF-1 alone or together with C98 for 48 hr followed by MTT assay.
Figure 4 C98 activates apoptotic signaling in MM cells (A) JJN3 cells were treated with C98 (0, 2.5, 5, 10, 20 μM) for 24 hr or 10 μM for 0, 3, 6, or 9 hr, followed by immunoblotting for the expression of p-AKT, t-AKT, pro-caspase-3 (Pro-Casp3), and cleaved caspase-3 (Cle-Casp3). (B) KMS11, LP1, OCI-My5, OPM2, JJN3, and RPMI-8226 were treated with C98 (20 μM) for 24 hr, followed by immunoblotting for the expression of PARP, Pro-Casp3, and Cle-Casp3. GAPDH was used as a loading control.
as §3

Experiment [4] has as its system AKT. Description: Kinase activity in cell-free assay, AKT. It is filed as biochemical. Conditions: enzymatic system; read-out: IC50 on AKT activation. On the procedure: (§4) To confirm this hypothesis, the inhibitory potency of C98 on PI3K enzymes was measured in a cell-free system with individual recombinant human PI3K isoforms. […] To further evaluate its specificity on PI3K, the effects of C98 on other associated kinases AKT, PDK1, and mTOR were also measured in the enzymatic systems. […] Therefore, C98 preferred to inhibit PI3K activity.
Kinase activity in the presence of C98 was performed by using the HotSpot technology (Reaction Biology Corp., Malvern, PA, USA) as described previously.

For experiment [5], the target named is recombinant human PI3K isoform β (Homo sapiens, UniProt P42338). Description: Kinase activity in cell-free assay (HotSpot), PI3Kβ. It is filed as biochemical. To be noted: read-out: IC50 against PI3K β isoform. On the procedure:
as §4
Figure 1 C98 inhibits PI3K activity (A) Chemical structure of C98. (B) OPM2 cells were starved overnight and then treated with six compounds identified from the virtual screening for 2 hr, followed by IGF-1 stimulation for 15 min. Cell lysates were prepared for AKT expression and phosphorylation analyses. The known PI3K inhibitor S14161 was used as a positive control. (C) OPM2 cells were starved overnight, then treated with C98 at indicated concentration (25, 50 and 100 μM) or S14161 (100 μM) for 2 hr, followed by IGF-1 (100 ng/mL) stimulation for 15 min Cell lysates were prepared for AKT expression and phosphorylation analyses. […] Activity of each kinase was determined with HotSpot technology as described in the Methods section “Kinase activity in cell-free assay”. […]

The test system of experiment [6] is c-Src. Description: Immunoblotting of c-Src phosphorylation in OPM2 and JJN3 cells. It is filed as cell-based, human. Conditions: OPM2 and JJN3, 24 hr. As for the experimental part: as §1, §2, §3
Setting [7] is: JJN3 xenograft, 40 mg/kg oral daily, 16 days.
[8] abbreviates: JJN3 xenograft, 80 mg/kg oral daily, 16 days.

Molecules are shown by their SMILES.

recombinant human PI3K isoform β, sequence (P42338 whole entry, canonical isoform): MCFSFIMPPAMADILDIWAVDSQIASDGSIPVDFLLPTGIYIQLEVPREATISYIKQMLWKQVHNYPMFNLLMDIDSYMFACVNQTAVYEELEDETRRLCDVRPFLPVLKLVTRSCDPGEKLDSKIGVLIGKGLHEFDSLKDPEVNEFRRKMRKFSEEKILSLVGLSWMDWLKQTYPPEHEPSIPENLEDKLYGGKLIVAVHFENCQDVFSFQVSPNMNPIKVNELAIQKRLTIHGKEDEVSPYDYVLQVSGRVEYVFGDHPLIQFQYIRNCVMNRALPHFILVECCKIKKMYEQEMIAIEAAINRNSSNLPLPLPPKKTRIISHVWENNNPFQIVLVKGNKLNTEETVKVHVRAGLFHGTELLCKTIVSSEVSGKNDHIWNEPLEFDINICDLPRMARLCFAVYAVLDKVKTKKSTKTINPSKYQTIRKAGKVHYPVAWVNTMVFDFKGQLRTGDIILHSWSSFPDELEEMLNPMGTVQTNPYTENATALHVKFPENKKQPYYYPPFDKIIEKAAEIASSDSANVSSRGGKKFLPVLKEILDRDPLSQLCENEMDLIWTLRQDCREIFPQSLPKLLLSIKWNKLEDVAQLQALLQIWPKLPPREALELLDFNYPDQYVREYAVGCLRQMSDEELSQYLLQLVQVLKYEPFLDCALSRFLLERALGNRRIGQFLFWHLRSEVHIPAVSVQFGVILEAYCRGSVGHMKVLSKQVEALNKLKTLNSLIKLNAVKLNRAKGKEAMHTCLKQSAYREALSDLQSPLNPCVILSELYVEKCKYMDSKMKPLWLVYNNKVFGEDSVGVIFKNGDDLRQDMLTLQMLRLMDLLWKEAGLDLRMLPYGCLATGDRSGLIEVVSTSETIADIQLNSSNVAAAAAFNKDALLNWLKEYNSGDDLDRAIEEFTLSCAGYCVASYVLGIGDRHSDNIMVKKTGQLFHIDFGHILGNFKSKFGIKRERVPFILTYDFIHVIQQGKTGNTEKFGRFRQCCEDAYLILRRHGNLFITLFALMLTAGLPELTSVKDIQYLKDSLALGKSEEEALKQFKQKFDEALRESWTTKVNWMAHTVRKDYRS
recombinant human PI3K isoform β, sequence (P27986 whole entry partner, canonical isoform): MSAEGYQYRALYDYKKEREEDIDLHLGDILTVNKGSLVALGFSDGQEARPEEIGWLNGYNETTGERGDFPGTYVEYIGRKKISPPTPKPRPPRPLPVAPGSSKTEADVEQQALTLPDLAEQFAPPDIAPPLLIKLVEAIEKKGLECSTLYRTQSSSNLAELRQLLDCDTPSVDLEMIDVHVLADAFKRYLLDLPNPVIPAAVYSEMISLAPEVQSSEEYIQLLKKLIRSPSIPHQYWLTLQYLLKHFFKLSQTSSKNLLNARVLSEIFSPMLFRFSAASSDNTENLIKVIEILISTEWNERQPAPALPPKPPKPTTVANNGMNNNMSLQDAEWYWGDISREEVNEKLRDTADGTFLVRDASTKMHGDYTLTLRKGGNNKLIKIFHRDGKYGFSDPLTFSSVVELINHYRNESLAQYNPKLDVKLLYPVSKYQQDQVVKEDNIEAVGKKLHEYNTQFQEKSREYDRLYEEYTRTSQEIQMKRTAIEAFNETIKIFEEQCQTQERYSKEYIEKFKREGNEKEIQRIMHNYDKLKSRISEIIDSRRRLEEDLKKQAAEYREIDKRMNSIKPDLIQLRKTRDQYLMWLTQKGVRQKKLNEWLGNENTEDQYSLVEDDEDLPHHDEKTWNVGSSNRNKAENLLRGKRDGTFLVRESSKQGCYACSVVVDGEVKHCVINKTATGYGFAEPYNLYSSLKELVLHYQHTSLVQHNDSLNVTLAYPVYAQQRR

Turning to `N#C/C(=C\C=C\c1ccc(-c2cc(Cl)ccc2Cl)o1)C(N)=S` [C98], in experiment [1], the “phosphorylated STAT3” value is “did not decrease”. Further, the “AKT phosphorylation in tumors” value in experiment [2] (JJN3 tumors, both 40 and 80 mg/kg doses, immunoblotting) is reported as “decreased”. Besides, in experiment [2] (setting [7]), the “decrease of tumor growth” value worked out at 48% and the tumor volume is listed as 1293.1 ± 289.7 mm^3. Further, in experiment [2] (setting [8]), the “decreased tumor growth to %” value was 76.5% and the tumor volume amounted to 581.2 ± 73.2 mm^3. The “cleavage of PARP in tumors” value in experiment [2] (MM tumors excised from C98-treated mice, especially high dose group) was “cleavage of PARP was found”. Moreover, the “cleavage of caspase-3 and PARP (apoptosis)” value in experiment [3] was “both caspase-3 and PARP were cleaved”. Besides, the IC50 in experiment [4] came out at 61.4 µM. Further, in experiment [5], the IC50 worked out at 1.64 µM. In experiment [6], the “phosphorylation of c-Src” value is on record as “failed to inhibit”.

Source of the values: PMC4381587, “A novel PI3K inhibitor PIK-C98 displays potent preclinical activity against multiple myeloma” (Oncotarget, 2014).
